Experimental data reported in patent US7655629B2, “Peptides and their use for the treatment of HIV infections” (priority 2002, dated 2010).
Like-named read-outs stand apart in the source and are kept apart here. Positions of bridges follow the written chain, without caps; N, C: chain ends. Non-standard residues stand in square brackets, D forms with d. Residues, ends and D or L forms follow the SMILES beside them. Chains are numbered I, II in the order given. Dip = N[C@H](C(=O)O)C(c1ccccc1)c1ccccc1; Phe(4-F) = N[C@@H](Cc1ccc(F)cc1)C(=O)O; Bta = N[C@@H](Cc1csc2ccccc12)C(=O)O; 4Pal = N[C@@H](Cc1ccncc1)C(=O)O; Tic = O=C(O)[C@@H]1Cc2ccccc2CN1

Legend:
HIV-1 NL4-3 DTV = conditions: read-out: IC50 DTV, P4-CCR5 cells, peptide 2 h before infection, readout three days after infection
How it was run: (§1)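 P4-CCR5 cells (CD4, CCR5, CXCR4, HIV-1 promoter-driven β-galactosidase) pretreated 2 h with peptide, then infected with virus containing 1 ng p24 antigen and incubated overnight. Cells washed and cultured without peptide; three days post-infection infectivity read by chemiluminescent β-galactosidase assay, in quintuplicate.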

X4-tropic HIV-1 NL4-3 = conditions: for IC50: read-out: IC50 NL4-3, P4-CCR5 cells, HIV-1 NL4-3, peptide 2 h before infection, readout three days after infection
How it was run: as §1

[1] = human, plasma
Procedure: (§2) Plasma was spiked resulting in concentrations of 40 μg/ml and stored at 37° C. At time points 0, 15, 30, 45, 60, 120, 180, 240 and 300 min samples of 20 μl were taken. The plasma was immediately mixed for precipitation with the two-fold volume of acetonitrile containing 0.15% (w/v) n-nonyl-β-D-glucopyranoside. Following centrifugation the supernatants were mixed with the two-fold volume of 0.1% (v/v) trifluroacetic acid. Twenty μl of these solutions were analyzed by LC-MS. Chromatography was performed using a gradient with the following eluents: eluent A: water containing 0.06% trifluroacetic acid (v/v), eluent B: acetonitrile/water 80:20 (v/v; with 0.05% trifluoroacetic acid; v/v). A C18 precolumn was used in combination with a C18 separation column (300 Å, 5 μm, 150×1 mm inner diameter) at a flow rate of 30 μl/min. HPLC eluates were ionized by the electrospray technique of a LCQ classic mass spectrometer. Areas of the detected peaks of the peptides of the present invention were measured and used for quantification by external calibration. The calibration curve was linear over a range from 0.5 μg/ml to 250 μg/ml plasma. Half life—defined as the period for a concentration decrease to 50% of the initial concentration—was calculated from the slope of an extrapolated curve plotting the relative peptide concentration at a given time point (logarithm scale) against the incubation time. These experiments allowed the quantitative analysis of peptide concentration in plasma.

[2] = rat, plasma
Procedure: as §2

[3] = dog, plasma
Procedure: as §2

[4] = cynomolgus monkey, plasma
Procedure: as §2

Row | Compound | IC50 (HIV-1 NL4-3 DTV) [nM] | IC50 (X4-tropic HIV-1 NL4-3) [nM] | half-life [1] [h] | half-life [2] [h] | half-life [3] [h] | half-life [4] [h] | increase in anti-HIV activity in comparison to VIRIP (X4-tropic HIV-1 NL4-3; from IC50 against two HIV-1 strains (NL4-3, DTV)) [fold]
1 | CC[C@H](C)[C@H](NC(=O)[C@H](C)NC(=O)[C@H](CCC(=O)O)NC(=O)[C@@H](N)CC(C)C)C(=O)N1CCC[C@H]1C(=O)N[C@@H](CCSC)C(=O)N[C@@H](CO)C(=O)N[C@H](C(=O)N1CCC[C@H]1C(=O)N1CCC[C@@H]1C(=O)N[C@@H](CCC(=O)O)C(=O)N[C@H](C(=O)N[C@@H](C)C(=O)N[C@@H](Cc1ccccc1)C(=O)N[C@@H](CC(N)=O)C(=O)N[C@@H](CCCCN)C(=O)N1CCC[C@H]1C(=O)N[C@@H](Cc1ccccc1)C(=O)N[C@H](C(=O)N[C@@H](Cc1ccccc1)C(=O)O)C(C)C)C(c1ccccc1)c1ccccc1)[C@@H](C)CC [VIR-261, LEAIPMSIPpE(3,3-diphenylalanine)AFNKPFVF] (H-LEAIPMSIP[dP]E[Dip]AFNKPFVF-OH) | 1030 | 538 | 7 | 0.2 | 15.1 | 6.5 | 
2 | CC[C@H](C)[C@H](NC(=O)[C@H](C)NC(=O)[C@H](CCC(=O)O)NC(=O)[C@@H](N)CC(C)C)C(=O)N1CCC[C@H]1C(=O)N[C@@H](CSSC[C@H](NC(=O)[C@@H]1CCCN1C(=O)[C@@H](NC(=O)[C@H](C)NC(=O)[C@H](CCC(=O)O)NC(=O)[C@@H](N)CC(C)C)[C@@H](C)CC)C(=O)N[C@@H](CO)C(=O)N[C@H](C(=O)N1CCC[C@H]1C(=O)N1CCC[C@H]1C(=O)N[C@@H](CCC(=O)O)C(=O)N[C@@H](Cc1ccccc1)C(=O)N[C@@H](CC(C)C)C(=O)N[C@@H](Cc1ccccc1)C(=O)NCC(=O)N[C@@H](CCCCN)C(=O)N1CCC[C@H]1C(=O)N[C@@H](Cc1ccccc1)C(=O)N[C@H](C(=O)N[C@@H](Cc1ccccc1)C(=O)O)C(C)C)[C@@H](C)CC)C(=O)N[C@@H](CO)C(=O)N[C@H](C(=O)N1CCC[C@H]1C(=O)N1CCC[C@H]1C(=O)N[C@@H](CCC(=O)O)C(=O)N[C@@H](Cc1ccccc1)C(=O)N[C@@H](CC(C)C)C(=O)N[C@@H](Cc1ccccc1)C(=O)NCC(=O)N[C@@H](CCCCN)C(=O)N1CCC[C@H]1C(=O)N[C@@H](Cc1ccccc1)C(=O)N[C@H](C(=O)N[C@@H](Cc1ccccc1)C(=O)O)C(C)C)[C@@H](C)CC [VIR-576] (I: H-LEAIPCSIPPEFLFGKPFVF-OH / II: H-LEAIPCSIPPEFLFGKPFVF-OH; disulfide I:6-II:6) |  |  | 5.8 | 2.6 | 12.6 | 3.8 | 
3 | CC[C@H](C)[C@H](NC(=O)[C@H](C)NC(=O)[C@H](CCC(=O)O)NC(=O)[C@@H](N)CC(C)C)C(=O)N1CCC[C@H]1C(=O)N[C@@H](CCSC)C(=O)N[C@@H](CO)C(=O)N[C@H](C(=O)N1CCC[C@H]1C(=O)N1CCC[C@@H]1C(=O)N[C@@H](CCC(=O)O)C(=O)N[C@H](C(=O)N1Cc2ccccc2C[C@H]1C(=O)N[C@@H](Cc1ccccc1)C(=O)N[C@@H](CC(N)=O)C(=O)N[C@@H](CCCCN)C(=O)N1CCC[C@H]1C(=O)N[C@@H](Cc1ccccc1)C(=O)N[C@H](C(=O)N[C@@H](Cc1ccccc1)C(=O)O)C(C)C)C(C)C)[C@@H](C)CC [VIR-263, LEAIPMSIPpEV(L-Tic)FNKPFVF] (H-LEAIPMSIP[dP]EV[Tic]FNKPFVF-OH) | 330 | 770 |  |  |  |  | 
4 | CC[C@H](C)[C@H](NC(=O)[C@H](C)NC(=O)[C@H](CCC(=O)O)NC(=O)[C@@H](N)CC(C)C)C(=O)N1CCC[C@H]1C(=O)N[C@@H](CCSC)C(=O)N[C@@H](CO)C(=O)N[C@H](C(=O)N1CCC[C@H]1C(=O)N1CCC[C@@H]1C(=O)N[C@@H](CCC(=O)O)C(=O)N[C@H](C(=O)N[C@@H](Cc1ccccc1)C(=O)N[C@@H](Cc1ccccc1)C(=O)N[C@@H](CC(N)=O)C(=O)N[C@@H](CCCCN)C(=O)N1CCC[C@H]1C(=O)N[C@@H](Cc1ccccc1)C(=O)N[C@H](C(=O)N[C@@H](Cc1ccccc1)C(=O)O)C(C)C)C(C)C)[C@@H](C)CC [VIR-197, LEAIPMSIPpEVFFNKPFVF] (H-LEAIPMSIP[dP]EVFFNKPFVF-OH) | 1440 | 1270 |  |  |  |  | 
5 | H-LEAIPMSIPPEIAFNKPFVF-OH [VIR-184] | 5390 | 1990 |  |  |  |  | 4
6 | CC[C@H](C)[C@H](NC(=O)[C@H](C)NC(=O)[C@H](CCC(=O)O)NC(=O)[C@@H](N)CC(C)C)C(=O)N1CCC[C@H]1C(=O)N[C@@H](CCSC)C(=O)N[C@@H](CO)C(=O)N[C@H](C(=O)N1CCC[C@H]1C(=O)N1CCC[C@@H]1C(=O)N[C@@H](CCC(=O)O)C(=O)N[C@@H](Cc1ccccc1)C(=O)N[C@@H](C)C(=O)N[C@@H](Cc1ccccc1)C(=O)N[C@@H](CC(N)=O)C(=O)N[C@@H](CCCCN)C(=O)N1CCC[C@H]1C(=O)N[C@@H](Cc1ccccc1)C(=O)N[C@H](C(=O)N[C@@H](Cc1ccccc1)C(=O)O)C(C)C)[C@@H](C)CC [VIR-193, LEAIPMSIPpEFAFNKPFVF] (H-LEAIPMSIP[dP]EFAFNKPFVF-OH) | 1380 | 1740 |  |  |  |  | 
7 | CC[C@H](C)[C@H](NC(=O)[C@H](C)NC(=O)[C@H](CCC(=O)O)NC(=O)[C@@H](N)CC(C)C)C(=O)N1CCC[C@H]1C(=O)N[C@@H](CCSC)C(=O)N[C@@H](CO)C(=O)N[C@H](C(=O)N1CCC[C@H]1C(=O)N1CCC[C@@H]1C(=O)N[C@@H](CCC(=O)O)C(=O)N[C@H](C(=O)N[C@@H](Cc1ccncc1)C(=O)N[C@@H](Cc1ccccc1)C(=O)N[C@@H](CC(N)=O)C(=O)N[C@@H](CCCCN)C(=O)N1CCC[C@H]1C(=O)N[C@@H](Cc1ccccc1)C(=O)N[C@H](C(=O)N[C@@H](Cc1ccccc1)C(=O)O)C(C)C)C(C)C)[C@@H](C)CC [VIR-260, LEAIPMSIPpEV(4-pyridylalanine)FNKPFVF] (H-LEAIPMSIP[dP]EV[4Pal]FNKPFVF-OH) | 2380 | 2150 |  |  |  |  | 
8 | CC[C@H](C)[C@H](NC(=O)[C@H](C)NC(=O)[C@H](CCC(=O)O)NC(=O)[C@@H](N)CC(C)C)C(=O)N1CCC[C@H]1C(=O)N[C@@H](CCSC)C(=O)N[C@@H](CO)C(=O)N[C@H](C(=O)N1CCC[C@H]1C(=O)N1CCC[C@@H]1C(=O)N[C@@H](CCC(=O)O)C(=O)N[C@@H](Cc1ccccc1)C(=O)N[C@@H](CC(C)C)C(=O)N[C@@H](Cc1ccccc1)C(=O)N[C@@H](CC(N)=O)C(=O)N[C@@H](CCCCN)C(=O)N1CCC[C@H]1C(=O)N[C@@H](Cc1ccccc1)C(=O)N[C@H](C(=O)N[C@@H](Cc1ccccc1)C(=O)O)C(C)C)[C@@H](C)CC [VIR-199, LEAIPMSIPpEFLFNKPFVF] (H-LEAIPMSIP[dP]EFLFNKPFVF-OH) | 1650 | 2140 |  |  |  |  | 
9 | H-LEAIPMSIPPEFAFNKDFVF-OH [VIR-243] | 1980 | 2160 |  |  |  |  | 
10 | CC[C@H](C)[C@H](NC(=O)[C@H](C)NC(=O)[C@H](CCC(=O)O)NC(=O)[C@@H](N)CC(C)C)C(=O)N1CCC[C@H]1C(=O)N[C@@H](CCSC)C(=O)N[C@@H](CO)C(=O)N[C@H](C(=O)N1CCC[C@H]1C(=O)N1CCC[C@@H]1C(=O)N[C@@H](CCC(=O)O)C(=O)N[C@H](C(=O)N[C@@H](Cc1c[nH]c2ccccc12)C(=O)N[C@@H](Cc1ccccc1)C(=O)N[C@@H](CC(N)=O)C(=O)N[C@@H](CCCCN)C(=O)N1CCC[C@H]1C(=O)N[C@@H](Cc1ccccc1)C(=O)N[C@H](C(=O)N[C@@H](Cc1ccccc1)C(=O)O)C(C)C)C(C)C)[C@@H](C)CC [VIR-266, LEAIPMSIPpEVWFNKPFVF] (H-LEAIPMSIP[dP]EVWFNKPFVF-OH) | 830 | 590 |  |  |  |  | 
11 | CC[C@H](C)[C@H](NC(=O)[C@H](C)NC(=O)[C@H](CCC(=O)O)NC(=O)[C@@H](N)CC(C)C)C(=O)N1CCC[C@H]1C(=O)N[C@@H](CCSC)C(=O)N[C@@H](CO)C(=O)N[C@H](C(=O)N1CCC[C@H]1C(=O)N1CCC[C@@H]1C(=O)N[C@@H](CCC(=O)O)C(=O)N[C@@H](Cc1ccc(F)cc1)C(=O)N[C@@H](C)C(=O)N[C@@H](Cc1ccccc1)C(=O)N[C@@H](CC(N)=O)C(=O)N[C@@H](CCCCN)C(=O)N1CCC[C@H]1C(=O)N[C@@H](Cc1ccccc1)C(=O)N[C@H](C(=O)N[C@@H](Cc1ccccc1)C(=O)O)C(C)C)[C@@H](C)CC [VIR-259, LEAIPMSIPpE(p-fluorophenylalanine)AFNKPFVF] (H-LEAIPMSIP[dP]E[Phe(4-F)]AFNKPFVF-OH) | 1030 | 860 |  |  |  |  | 
12 | CC[C@H](C)[C@H](NC(=O)[C@H](C)NC(=O)[C@H](CCC(=O)O)NC(=O)[C@@H](N)CC(C)C)C(=O)N1CCC[C@H]1C(=O)N[C@@H](CCSC)C(=O)N[C@@H](CO)C(=O)N[C@H](C(=O)N1CCC[C@H]1C(=O)N1CCC[C@@H]1C(=O)N[C@@H](CCC(=O)O)C(=O)N[C@H](C(=O)N[C@@H](Cc1csc2ccccc12)C(=O)N[C@@H](Cc1ccccc1)C(=O)N[C@@H](CC(N)=O)C(=O)N[C@@H](CCCCN)C(=O)N1CCC[C@H]1C(=O)N[C@@H](Cc1ccccc1)C(=O)N[C@H](C(=O)N[C@@H](Cc1ccccc1)C(=O)O)C(C)C)C(C)C)[C@@H](C)CC [VIR-264, LEAIPMSIPpEV(3-benzothienylalanine)FNKPFVF] (H-LEAIPMSIP[dP]EV[Bta]FNKPFVF-OH) | 700 | 590 |  |  |  |  | 
13 | CC[C@H](C)[C@H](NC(=O)[C@H](C)NC(=O)[C@H](CCC(=O)O)NC(=O)[C@@H](N)CC(C)C)C(=O)N1CCC[C@H]1C(=O)N[C@@H](CCSC)C(=O)N[C@@H](CO)C(=O)N[C@H](C(=O)N1CCC[C@H]1C(=O)N1CCC[C@@H]1C(=O)N[C@@H](CCC(=O)O)C(=O)N[C@H](C(=O)N[C@@H](CC(C)C)C(=O)N[C@@H](Cc1ccccc1)C(=O)NCC(=O)N[C@@H](CCCCN)C(=O)N1CCC[C@H]1C(=O)N[C@@H](Cc1ccccc1)C(=O)N[C@H](C(=O)N[C@@H](Cc1ccccc1)C(=O)O)C(C)C)C(C)C)[C@@H](C)CC [VIR-191, LEAIPMSIPpEVLFGKPFVF] (H-LEAIPMSIP[dP]EVLFGKPFVF-OH) | 560 | 1790 |  |  |  |  | 
